Assay: Outcome variables of patients on each psychotropic drug broken down by demographic factors (Covariates tables)
Format: in vivo, human
Text: Various SNPs associated with, for example, the observation of various parameters of metabolic syndromes in patients on psychotropic drugs were screened. The endpoints analyzed were the blood levels of LDL, HDL, and glucose; blood pressure; body mass index; waist circumference; and metabolic syndromes index. The physiogenomic model was developed using the following procedure: 1) Establish a covariate model using only the demographic and clinical variables, 2) Screen for associated genetic markers by testing each SNP against the unexplained residual of the covariate model, and 3) Establish a revised model incorporating the significant associations from the SNP screen.

Cc1nc2n(c(=O)c1CCN1CCC(c3noc4cc(F)ccc34)CC1)CCCC2 [Risperidone, risperidone] gave a BM (Age 20-30) of 77.82, a BMI (Age 20-30) of 25.55 and a Glucose (Age 20-30) of 85.42. For the same compound, the HDL (Age 20-30) was 43.50, the LDL (Age 20-30) was 93.20 and the TC (Age 20-30) was 166.80. For the same compound, the Waist (Age 20-30) was 92.78, the dBP (Age 20-30) was 75.20 and the “log (TG)” value (Age 20-30) was 4.801. It also gave a sBP (Age 20-30) of 116.80, a BM (Age 30-40) of 77.98 and a BMI (Age 30-40) of 25.60. It also gave a Glucose (Age 30-40) of 93.38, an HDL (Age 30-40) of 52.19 and an LDL (Age 30-40) of 92.69. For the same compound, the TC (Age 30-40) was 185.54, the Waist (Age 30-40) was 92.34 and the dBP (Age 30-40) was 76.77. The “log (TG)” value (Age 30-40) was 5.129, the sBP (Age 30-40) was 118.04 and the BM (Age 40-50) was 77.81. It also gave a BMI (Age 40-50) of 25.80, a Glucose (Age 40-50) of 95.03 and an HDL (Age 40-50) of 52.00. For the same compound, the LDL (Age 40-50) was 100.78, the TC (Age 40-50) was 181.71 and the Waist (Age 40-50) was 97.23. For the same compound, the dBP (Age 40-50) was 75.10, the “log (TG)” value (Age 40-50) was 4.888 and the sBP (Age 40-50) was 115.73. The BM (Age 50-60) was 76.52, the BMI (Age 50-60) was 29.45 and the Glucose (Age 50-60) was 109.00. It also gave an HDL (Age 50-60) of 59.50, an LDL (Age 50-60) of 85.80 and a TC (Age 50-60) of 185.70. The Waist (Age 50-60) was 100.50, the dBP (Age 50-60) was 74.20 and the “log (TG)” value (Age 50-60) was 5.182. It also gave a sBP (Age 50-60) of 123.80, a BM (Age 60-70) of 87.60 and a BMI (Age 60-70) of 26.40. It also gave a Glucose (Age 60-70) of 103.00, an HDL (Age 60-70) of 54.00 and an LDL (Age 60-70) of 111.00. For the same compound, the TC (Age 60-70) was 191.00, the Waist (Age 60-70) was 103.00 and the dBP (Age 60-70) was 80.00. The “log (TG)” value (Age 60-70) was 4.875, the sBP (Age 60-70) was 118.00 and the BM (Age <20) was 97.73. For the same compound, the BMI (Age <20) was 28.93, the Glucose (Age <20) was 91.67 and the HDL (Age <20) was 60.00. It also gave an LDL (Age <20) of 113.00, a TC (Age <20) of 197.33 and a Waist (Age <20) of 110.33. The dBP (Age <20) was 71.33, the “log (TG)” value (Age <20) was 4.778 and the sBP (Age <20) was 123.33. For the same compound, the BM (All) was 78.42, the BMI (All) was 26.16 and the Glucose (All) was 94.14. For the same compound, the HDL (All) was 51.37, the LDL (All) was 96.18 and the TC (All) was 180.69. For the same compound, the Waist (All) was 95.90, the dBP (All) was 75.40 and the “log (TG)” value (All) was 4.958. For the same compound, the sBP (All) was 117.58, the BM (Gender female) was 73.38 and the BMI (Gender female) was 27.05. For the same compound, the Glucose (Gender female) was 91.57, the HDL (Gender female) was 55.74 and the LDL (Gender female) was 94.32. For the same compound, the TC (Gender female) was 179.74, the Waist (Gender female) was 95.39 and the dBP (Gender female) was 74.74. For the same compound, the “log (TG)” value (Gender female) was 4.861, the sBP (Gender female) was 116.84 and the BM (Gender male) was 81.45. It also gave a BMI (Gender male) of 25.62, a Glucose (Gender male) of 95.68 and an HDL (Gender male) of 48.73. It also gave an LDL (Gender male) of 97.30, a TC (Gender male) of 181.27 and a Waist (Gender male) of 96.20. The dBP (Gender male) was 75.79, the “log (TG)” value (Gender male) was 5.017 and the sBP (Gender male) was 118.03. For the same compound, the BM (Heritage AA) was 80.46, the BMI (Heritage AA) was 27.14 and the Glucose (Heritage AA) was 115.56. The HDL (Heritage AA) was 58.50, the LDL (Heritage AA) was 95.50 and the TC (Heritage AA) was 173.80. For the same compound, the Waist (Heritage AA) was 92.90, the dBP (Heritage AA) was 78.00 and the “log (TG)” value (Heritage AA) was 4.478. The sBP (Heritage AA) was 117.80, the BM (Heritage Cauc.) was 78.19 and the BMI (Heritage Cauc.) was 26.05. For the same compound, the Glucose (Heritage Cauc.) was 92.00, the HDL (Heritage Cauc.) was 50.58 and the LDL (Heritage Cauc.) was 96.25. The TC (Heritage Cauc.) was 181.45, the Waist (Heritage Cauc.) was 96.23 and the dBP (Heritage Cauc.) was 75.11. The “log (TG)” value (Heritage Cauc.) was 5.011, the sBP (Heritage Cauc.) was 117.56 and the BM (patients on the named drug) was 78.42. The BMI (patients on the named drug) was 26.16, the Glucose (patients on the named drug) was 94.14 and the HDL (patients on the named drug) was 51.37. The LDL (patients on the named drug) was 96.18, the “Log (TG)” value (patients on the named drug) was 4.958 and the TC (patients on the named drug) was 180.69. It also gave a Waist (patients on the named drug) of 95.90, a dBP (patients on the named drug) of 75.40 and a sBP (patients on the named drug) of 117.58.
With OCCOCCN1CCN(C2=Nc3ccccc3Sc3ccccc32)CC1 [Quetiapine, quetiapine] the “LDL (LDL cholesterol level)” value (Age 20-30) was 91.35, the “LDL (LDL cholesterol level)” value (Age 30-40) was 102.92 and the “LDL (LDL cholesterol level)” value (Age 40-50) was 94.39. The “LDL (LDL cholesterol level)” value (Age 50-60) was 97.33, the “LDL (LDL cholesterol level)” value (Age 60-70) was 88.00 and the “LDL (LDL cholesterol level)” value (Age <20) was 87.40. The “LDL (LDL cholesterol level)” value (All patients on the drug) was 96.71, the “LDL (LDL cholesterol level)” value (Gender female) was 92.89 and the “LDL (LDL cholesterol level)” value (Gender male) was 99.19. For the same compound, the “LDL (LDL cholesterol level)” value (Heritage AA) was 94.38, the “LDL (LDL cholesterol level)” value (Heritage Cauc.) was 96.93 and the BM (human, in vivo) was 87.05. It also gave a BMI (human, in vivo) of 29.44, a Glucose (human, in vivo) of 92.08 and an HDL (human, in vivo) of 49.79. For the same compound, the “Log (TG)” value (human, in vivo) was 5.263, the MSI (human, in vivo) was 0.2625 and the TC (human, in vivo) was 192.33. It also gave a dBP (human, in vivo) of 75.04, a sBP (human, in vivo) of 120.07 and an LDL (patients on the named drug) of 96.71.

Reference: US8389247B2, “Physiogenomic method for predicting diabetes and metabolic syndromes induced by psychotropic drugs” (priority 2006, dated 2013)
